The values that follow come from patent US20250339492A1, “METHOD OF TREATING OR PREVENTING AN ADVERSE SECONDARY NEUROLOGICAL OUTCOME FOLLOWING A HAEMORRHAGIC STROKE” (CSL BEHRING AG, priority 2021, published 2025).

One assay has as its system porcine basilar arteries. In words: vascular function assay, porcine basilar arteries pre-contracted with PGF2α. The protocol: The vascular function assay (FIG. 7E) was performed using fresh porcine basilar arteries obtained from a local abattoir (n=12). Vessels were pre stretched to reach 8 the optimal passive pretension as previously published (Hugelshofer et al., 2020). Then, 10 μM prostaglandin F2α (PGF2α; Sigma, Buchs, Switzerland) was used as a pre-contracting agent. In order to determine the maximum possible tension in absence of endogenous NO, L-N5-(1-Iminoethyl) ornithine hydrochloride (L-NIO; Sigma-Aldrich, Saint Louis, US-MO) at a concentration of 10 μM was added at the end of the experiment. The recorded tension was normalized to the individual NO reserve capacity of the respective vessel, i.e. the baseline tension after addition of PGF2α (0%) and the tension after addition of L-NIO at the end of the experiment (100%) (FIG. 7F). Damaged vessels with a continuous loss in tension over the duration of the experiment, resulting in a PGF2α max/L-NIO max ratio below 0.7, were excluded from the analysis (FIG. 7F). A first series of experiments was conducted to evaluate the vasoconstrictive potential of the patient CSF in the high-risk phase for SAH-SBI after aSAH and to assess the specific role of oxyHb in this process. […] In a second series of experiments, the influence of an increasing exposure to Hb on the vascular tension was assessed. […]

For another assay, the target named is T1, CSF-Hb (Homo sapiens, UniProt P68871+P69905).
T1 construct: from tissue; host or cells: cerebrospinal fluid of patients after aSAH (high-risk phase, week 0.5-2)
T1 sequence (P69905 2-142 limits assumed): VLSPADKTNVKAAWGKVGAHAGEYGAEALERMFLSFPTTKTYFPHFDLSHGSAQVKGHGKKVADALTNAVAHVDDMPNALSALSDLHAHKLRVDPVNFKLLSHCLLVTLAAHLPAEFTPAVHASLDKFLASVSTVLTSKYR
T1 sequence (P68871 2-147 limits assumed): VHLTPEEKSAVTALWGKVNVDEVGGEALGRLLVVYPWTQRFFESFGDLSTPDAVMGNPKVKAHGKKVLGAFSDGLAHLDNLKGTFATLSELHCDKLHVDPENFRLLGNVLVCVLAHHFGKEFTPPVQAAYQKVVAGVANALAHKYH
The assay is described as follows: oxidative potential of patient CSF after aSAH (TBARS, MDA formation) with addition of Hp or hemopexin. Type of assay: biochemical. Conditions: added at equimolar concentration, patient CSF of high risk phase week 0.5-2, FIG. 5D. The protocol: Hb used in ex vivo experiments was purified from expired human blood concentrates as previously described (Elmer et al., 2009). Hb concentrations were determined by spectral deconvolution as described above and are given as molar concentrations of total heme (1 M Hb tetramer is equivalent to 4 M heme). Hx was used in equimolar concentration to the concentration of heme measured in the test sample. For all Hb used in these studies, the fraction of ferrous oxyHb (HbFe2+O2) was always greater than 98% as determined by spectrophotometry. Purified haptoglobin (phenotype 1-1) and hemopexin from human plasma was obtained from CSL Behring.
The oxidative potential of CSF samples was quantified by measuring the formation of malondialdehyde (MDA) as the final product of lipid peroxidation after incubation with a well-defined reconstituted lipoprotein (rLP, obtained from CSL Behring, Bern, Switzerland) (FIG. 7G). Using a 96-well plate, 25 μL CSF were mixed with 5 μL rLP (3 mg/mL) and incubated at 37° C. for 24 hours. Subsequently, the concentration of MDA was measured using a thiobarbituric acid reactive substance (TBARS) assay. In short 125 μL of 750 mM trichloroacetic acid in 1 M HCl was added to the samples, followed by short vortexing and subsequent addition of 100 μL 25 mM 2-thiobarbituric acid in 1 M NaOH.
After an incubation period at 80° for 60 min, the TBARS in the supernatant were quantified. For absolute quantification of MDA, the absorption at 600 nm was subtracted from the absorption at 532 nm and the concentration was calculated with the molar extinction 9 coefficient of […]. To achieve a more sensitive but relative quantification, the fluorescence emission was measured at 550 nm, using 510 nm as excitation wavelength.

Assay [1] has as its system C57BL/6J mice. In words: striatal injection model, behavioural testing (open field, rotarod, beam walk). Type of assay: in vivo. The conditions noted are these: 24 hours after striatal injection of 10 μL, 1 mM; n=6 per group; FIG. 12. An excerpt: (§1) Wild-type male C57BL/6J mice (10-12 weeks) were obtained from Charles River (Sulzfeld, Germany) and maintained at the animal facility of the University of Zurich (LASC) and treated in accordance with the guidelines of the Swiss Federal Veterinary Office.
Mice were anesthetized with isoflurane (4-5% for induction, 1-2% for maintenance; Baxter Healthcare Co. Deerfield, IL, USA) evaporated in 100% oxygen. Throughout the surgical procedure, body temperature was monitored with a rectal probe and maintained constant with the use of an electronic thermostat-controlled warming blanket. Anesthetized mice were placed in a motorized stereotaxic frame (Stoelting, Dublin, Ireland) and a 1 cm long midline skin incision was made. After removal of the soft tissue covering the skull, the frame referenced to bregma and a small burrhole was drilled above the entry point for the target. Then a 33G needle was slowly advanced (0.1 mm/s) into the striatum (bregma coordinates: 2 mm ML, 0.5 mm AP, 3.5 mm DV) followed by injection of 10 μL heme-albumin (1 mM), haptoglobin (5 mM) (protein control group) or heme-hemopexin (1 mM) with an infusion rate of 100 nl/s. […] After the surgical procedure, the animals were placed in a heated wake up box and monitored until they were fully recovered and could be transferred back to their homecage.
The open field exploration tests were conducted in four identical square arenas (40×40×35 cm high) made of opaque acrylic glass, located in a testing room under diffused lighting (approximately 35 Ix as measured in the center of the arenas). […] The total distance moved during 10 minutes (in cm), beginning after a 5 minutes acclimatization phase was measured.
For the rotarod behavioural testing the mice are placed on a rotating cylinder and therefore forced to walk. […] The time until the mice fall off the cylinder is measured.
For discrete neurological deficits, mice were subjected to a beam walk test. […] During the assessment, the motor function was scored by two investigators blinded to treatment.
In general terms: In the rotarod test animals must keep their balance on a rotating rod.

Assay [2] deals with C57BL/6J mice. The assay is described as follows: striatal injection model, MRI (T2, ASL, DWI). The assay is classed as in vivo. The conditions noted are these: for quantification of edema size and perfusion: 24, 48 and 72 hours after striatal injection, n=4 per group, FIG. 14; for radiological changes (T2, ADC map, ASL): 24 hours after striatal injection, FIG. 13.
From the text: as §1
Mice were anesthetized with isoflurane (4-5% for induction, 1-2% for maintenance; Baxter Healthcare Co. Deerfield, IL, USA) evaporated in 100% oxygen. Throughout the surgical procedure, body temperature was monitored with a rectal probe and maintained constant with the use of an electronic thermostat-controlled warming blanket. Anesthetized mice were placed in a motorized stereotaxic frame (Stoelting, Dublin, Ireland) and a 1 cm long midline skin incision was made. After removal of the soft tissue covering the skull, the frame referenced to bregma and a small burrhole was drilled above the entry point for the target. Then a 33G needle was slowly advanced (0.1 mm/s) into the striatum (bregma coordinates: 2 mm ML, 0.5 mm AP, 3.5 mm DV) followed by injection of 10 μL heme-albumin (1 mM), haptoglobin (5 mM) (protein control group) or heme-hemopexin (1 mM) with an infusion rate of 100 nl/s. The needle was left in place for 5 minutes, then removed slowly and the skin incision was closed with a suture. After the surgical procedure, the animals were placed in a heated wake up box and monitored until they were fully recovered and could be transferred back to their homecage.
Mice were anesthetized with isoflurane (4-5% for induction, 1-2% for maintenance; Baxter Healthcare Co. Deerfield, IL, USA) evaporated in 100% oxygen. Throughout the imaging procedure, body temperature was monitored with a rectal probe and maintained constant with the use of a warming blanket and respiratory rate was recorded by plethysmography. Mice were placed into a 7 T small animal MRI scanner (Brucker, Germany). T2, ASL and DWI images were recorded according to a standardized protocol.

The nature of assay [3]: formation of heme:Hx complexes in the CSF. The conditions noted are these: cell-free heme within the subarachnoid space.
For assay [4] the following is noted: read-out: ability to bind heme with high affinity (Kd); cited from earlier work.

Entries after “also recorded” stand apart in the source; their conditions may differ. A value given as a limit tells only on which side of the number the result lay.

Regarding “Hp1-1: Purified haptoglobin (phenotype 1-1) from human plasma obtained from CSL Behring”, the “contractile force of basilar arteries (anti-vasospastic effect)” value with porcine basilar arteries (Hb dose escalation with equimolar haptoglobin, repeated measures ANOVA p<0.001, FIG. 5C) is listed as “significantly attenuated the contractile force”. For the same molecule, the “MDA formation (lipid peroxidation)” value with CSF-Hb is listed as “effectively attenuated MDA formation”; in the assay with CSF-Hb (listed as haptoglobin), “partial inhibition”.

On to `C=CC1=C(C)c2cc3[n-]c(cc4[n-]c(cc5nc(cc1n2)C(C)=C5C=C)c(C)c4CCC(=O)O)c(CCC(=O)O)c3C.[Fe+2]` [heme], for which the “neurological function (open-field, rotarod, beamwalk testing)” value (“neurological function” below) in the assay with C57BL/6J mice [1] was “impaired neurological function; also recorded: impaired neurobehavioral function”. Further, in the assay with C57BL/6J mice [2], the “quantification of edema size and perfusion” value is “formation of a cerebral edema and a regionally decreased perfusion”; the “radiological changes (T2, ADC map, ASL)” value is “perilesional edema, a diffusion restriction in the ADC map and a focal perfusion deficit”.

Regarding “hemopexin: Purified hemopexin from human plasma obtained from CSL Behring; heme-scavenger protein”, the “period of exposure sufficient to form detectable heme:Hx complexes in the CSF” value in assay [3] is listed as “at least 2 minutes”. Moreover, the “neurological function” value in the assay on C57BL/6J mice [1] is “abrogates the heme-mediated impairment of neurological function”. Besides, the “MDA formation (lipid peroxidation)” value in the assay with CSF-Hb was “even stronger attenuation of MDA formation; also recorded: virtually blocked the formation of MDA; also recorded: surpassed the antioxidant function of haptoglobin”. Besides, the Kd (as a rule, the concentration at which binding is half-saturated) in assay [4] is below 1 pM.

“oxyHb: Hb purified from expired human blood concentrates; fraction of ferrous oxyHb greater than 98% [reference compound]”: in the assay with porcine basilar arteries (FIG. 4A), the “oxyHb concentration reaching maximum contraction” value is 10^−5 M.

B1: heme:Hx: heme-hemopexin complex (1 mM) injected into striatum (protein, UniProt P02790 24-462, looked up)
Hemopexin: TPLPPTSAHGNVAEGETKPDPDVTERCSDGWSFDATTLDDNGTMLFFKGEFVWKSHKWDRELISERWKNFPSPVDAAFRQGHNSVFLIKGDKVWVYPPEKKEKGYPKLLQDEFPGIPSPLDAAVECHRGECQAEGVLFFQGDREWFWDLATGTMKERSWPAVGNCSSALRWLGRYYCFQGNQFLRFDPVRGEVPPRYPRDVRDYFMPCPGRGHGHRNGTGHGNSTHHGPEYMRCSPHLVLSALTSDNHGATYAFSGTHYWRLDTSRDGWHSWPIAHQWPQGPSAVDAAFSWEEKLYLVQGTQVYVFLTKGGYTLVSGYPKRLEKEVGTPHGIILDSVDAAFICPGSSRLHIMAGRRLWWLDLKSGAQATWTELPWPHEKVDGALCMEKSLGPNSCSANGPGLYLIHGPNLYCYSDVEKLNAAKALPQPQNVTSLLGCTH
modifications: heme complex
notes: heme-hemopexin complex (1 mM) injected into striatum
For the molecule B1, the “neurological function” value with C57BL/6J mice [1] is reported as “no impairment in neurobehavioral activity”. The “quantification of edema size and perfusion” value with C57BL/6J mice [2] was “absent”. In the assay with C57BL/6J mice [2] (listed as heme:Hpx), the “radiological changes (T2, ADC map, ASL)” value is “only minor radiological changes; also recorded: largely absent”.
